These results are taken from PMC6264177, “Synthesis and Characterization of (Z)-5-Arylmethylidene-rhodanines with Photosynthesis-Inhibiting Properties ^†” (Molecules, 2011).

Where two headings read alike, the source gives them in different places.

A word on the IC50: it is the concentration that inhibits the measured activity by half.

Data set [1] deals with photosynthetic electron transport (PET) in spinach chloroplasts. As to the kind of experiment: Inhibition of photosynthetic electron transport (PET) in spinach chloroplasts, DCPIP photoreduction. The conditions noted are these: DCPIP as electron acceptor, pH 7.2. It is filed as biochemical, Spinacia oleracea L. As to the method: Chloroplasts were prepared from spinach (Spinacia oleracea L.) according to ref. [54]. The inhibition of photosynthetic electron transport (PET) in spinach chloroplasts was determined spectrophotometrically (Genesys 6, Thermo Scientific, USA) using an artificial electron acceptor 2,6-dichlorophenol-indophenol (DCIPP) according to ref. [55], and the rate of photosynthetic electron transport was monitored as a photoreduction of DCPIP. The measurements were carried out in phosphate buffer (0.02 mol/L, pH 7.2) containing sucrose (0.4 mol/L), MgCl2 (0.005 mol/L) and NaCl (0.015 mol/L). The chlorophyll content was 30 mg/L in these experiments, and the samples were irradiated (~100 W/m^2) from 10 cm distance with a halogen lamp (250 W) using a 4 cm water filter to prevent warming of the samples (suspension temperature 22 °C). The studied compounds were dissolved in DMSO due to their limited water solubility.

The next data set deals with Chlorella vulgaris. Kind of data set: Reduction of chlorophyll content in green algae Chlorella vulgaris. It is filed as cell-based, Chlorella vulgaris Beij. As to conditions: 168 h; for inhibition at 100 µM: 100 μmol/L of the compound, 7-day cultivation, read-out: Chlorella vulgaris reduction of Chl. cont.; for IC50: read-out: Chlorella vulgaris IC50 (50% reduction of chlorophyll content), 7-day cultivation.

Data set [2] is described as follows: Lipophilicity HPLC determination (capacity factor k / log k). It is filed as physicochemical. As to conditions: RP-HPLC, C18 column, isocratic, MeOH 70% / H2O 30%. As to the method: The procedure was performed under isocratic conditions with methanol as an organic modifier in the mobile phase using an end-capped non-polar C18 stationary RP column. […] The HPLC separation process was monitored by Empower™ 2 Chromatography Data Software, Waters 2009 (Waters Corp., Milford, MA, USA). […] The detection wavelength of 210 nm was chosen. The KI methanolic solution was used for the dead time (tD) determination. Retention times (tR) were measured in minutes. […] Log k, calculated from the capacity factor k, is used as the lipophilicity index converted to log P scale.

The subject of data set [3] is cotyledons of Brassica rapa L. As to conditions: 0.3 mmol/L; ref [11]; cited from earlier work.
Data set [4] has as its system immature cells of Marchantia polymorpha. On the set-up: method as in doi:10.1584/jpestics.22.1. As to conditions: 1 mmol/L, within 90 hours; ref [14]; cited from earlier work.
Data set [5] relates to Daucus carota L. var. sativa DC. On the set-up: method as in doi:10.1271/bbb.60.1368. The conditions noted are these: 0.3 mmol/L; ref [13]; cited from earlier work.
For another data set, the system named is seeds of Sesamum indicum. On the set-up: method as in doi:10.1271/bbb.60.1368. The conditions noted are these: 1 mmol/L; ref [13]; cited from earlier work.
In data set [6] the test system is photosynthetic electron transport. On the set-up: method as in doi:10.1584/jpestics.22.1. As to conditions: ref [14], read-out: IC50 of PET inhibition, cited from earlier work.
The subject of data set [7] is seeds of Daucus carota L. var. sativa DC. On the set-up: method as in doi:10.1271/bbb.60.1368. As to conditions: 1 mmol/L; ref [13]; cited from earlier work.

Experimental for Chlorella vulgaris: (photoperiod 16 h light/8 h dark; photosynthetically active radiation (PAR) 80 μmol/m^2s; pH 7.2). The effect of rhodanine compounds on algal chlorophyll (Chl) content was determined after 7-day cultivation in the presence of the compounds tested, expressing the response as percentage of the corresponding values obtained for control. The Chl content in the algal suspension was determined spectrophotometrically (Genesys 6, Thermo Scientific, USA) after extraction into methanol according to Wellburn [58].

`O=C1NC(=S)S/C1=C\c1ccccc1O` [Compound 2a, (5Z)-5-(2-Hydroxybenzylidene)-2-thioxo-1,3-thiazolidin-4-one]: the values for the IC50 (in [1]; in the data set with Chlorella vulgaris) were 369 µM and 59.4 µM, respectively. The inhibition at 100 µM in the data set with Chlorella vulgaris was 59%. This molecule also had a log k in data set [2] of 0.4664.

`O=C1NC(=S)S/C1=C\c1ccccc1Br` [Compound 10a, (5Z)-5-(2-Bromobenzylidene)-2-thioxo-1,3-thiazolidin-4-one]: in data set [1], the IC50 amounted to 18.1 µM. Also, in data set [2], the log k turned out to be 0.9368.

`O=C1NC(=S)S/C1=C\c1ccco1` [Compound 16, (5Z)-5-(Furan-2-ylmethylidene)-2-thioxo-1,3-thiazolidin-4-one] came in with a log k in data set [2] of 0.4656.

Take `O=C1NC(=S)S/C1=C\c1ccccc1[N+](=O)[O-]` [Compound 7a, (5Z)-5-(2-Nitrobenzylidene)-2-thioxo-1,3-thiazolidin-4-one]: in [1], the IC50 came to 428 µM. The same molecule came in with a log k in [2] of 0.2254.

For `O=C1/C(=C/c2cccc([N+](=O)[O-])c2)SC(=S)N1CCO` [Compound 11b, (5Z)-3-(2-Hydroxyethyl)-5-(3-nitrobenzylidene)-2-thioxo-1,3-thiazolidin-4-one], the log k in data set [2] is recorded as 0.6077.

Turning to `O=C1NC(=S)S/C1=C\c1ccc(Cl)cc1` [Compound 9c, (5Z)-5-(4-Chlorobenzylidene)-2-thioxo-1,3-thiazolidin-4-one], the IC50 in [1] was determined as 6 µM. Further, in the data set on Chlorella vulgaris, the inhibition at 100 µM came to 84.8% and the IC50 is 1.3 µM. This molecule also had a log k in data set [2] of 0.5936.

The molecule `O=C1NC(=S)S/C1=C\c1ccccc1Cl` [Compound 9a, (5Z)-5-(2-Chlorobenzylidene)-2-thioxo-1,3-thiazolidin-4-one] registered an IC50 in data set [1] of 53.3 µM. Moreover, in [2], the log k is given as 0.9019.

As for `O=C1/C(=C/c2ccc([N+](=O)[O-])cc2)SC(=S)N1CCO` [Compound 11c, (5Z)-3-(2-Hydroxyethyl)-5-(4-nitrobenzylidene)-2-thioxo-1,3-thiazolidin-4-one], in data set [2], the log k is on record as 0.6349.

`O=C1NC(=S)S/C1=C\c1cccc(O)c1` [Compound 2b, (5Z)-5-(3-Hydroxybenzylidene)-2-thioxo-1,3-thiazolidin-4-one] displayed a 50% inhibitory concentration (IC50) in [1] of 444 µM. In addition, the inhibition at 100 µM in the data set with Chlorella vulgaris amounted to 9.6%. Further, the log k in data set [2] was determined as 0.2744.

`O=C1NC(=S)S/C1=C\c1cccc(F)c1` [Compound 8b, (5Z)-5-(3-Fluorobenzylidene)-2-thioxo-1,3-thiazolidin-4-one] yielded an IC50 in data set [1] of 23.8 µM. In data set [2], this molecule showed a log k of 0.8204.

Take `O=C1NC(=S)S/C1=C\c1cccc(Br)c1` [Compound 10b, (5Z)-5-(3-Bromobenzylidene)-2-thioxo-1,3-thiazolidin-4-one]: in [1], half-maximal inhibition (IC50) was put at 5.2 µM. Further, the log k in [2] is on record as 1.0820.

Turning to `O=C1NC(=S)S/C1=C\c1ccc(F)cc1` [Compound 8c, (5Z)-5-(4-Fluorobenzylidene)-2-thioxo-1,3-thiazolidin-4-one], inhibition in data set [1] was half-maximal at 63.5 µM (IC50). This molecule also had a log k in data set [2] of 0.7909.

For `O=C1NC(=S)S/C1=C\c1ccncc1` [Compound 14, (5Z)-5-(Pyridin-4-ylmethylidene)-2-thioxo-1,3-thiazolidin-4-one], the log k in data set [2] was 0.1878.

For `CN(C)c1ccc(/C=C2\SC(=S)NC2=O)cc1` [Compound 6, (5Z)-5-[(4-Dimethylamino)benzylidene]-2-thioxo-1,3-thiazolidin-4-one], the inhibition at 100 µM with Chlorella vulgaris came to 12.6%. In addition, the log k in [2] was 0.6466.

The molecule `COc1ccc(/C=C2\SC(=S)NC2=O)cc1` [Compound 4c, (5Z)-5-(4-Methoxybenzylidene)-2-thioxo-1,3-thiazolidin-4-one] showed an IC50 in data set [1] of 174 µM. The molecule also returned a log k in data set [2] of 0.5425.

For `COc1cccc(/C=C2\SC(=S)NC2=O)c1` [Compound 4b, (5Z)-5-(3-Methoxybenzylidene)-2-thioxo-1,3-thiazolidin-4-one], in data set [1], the IC50 turned out to be 221 µM. In data set [2], this molecule had a log k of 0.5713.

Take `O=C1CSC(=S)N1` [rhodanine]: the “inhibition of chlorophyll synthesis in cotyledons” value in data set [3] is recorded as “strongly inhibited”. The “inhibition of growth of immature cells” value in data set [4] is reported as “completely inhibited”. Besides, the “inhibition of growth of Daucus carota” value in data set [5] is “strongly inhibited”. The “inhibition of germination of seeds of Sesamum indicum” value in the data set on seeds of Sesamum indicum is “inhibited”. Moreover, the results for the IC50 in [6] (assay done after illumination for 3 min) and in data set [6] (normal 1 min assay) were 100 µM and ~1000 µM, respectively. Moreover, the “inhibition of germination of seeds of Daucus carota” value in data set [7] is “inhibited”.

In turn, `O=C1NC(=S)S/C1=C\c1ccc(Br)cc1` [Compound 10c, (5Z)-5-(4-Bromobenzylidene)-2-thioxo-1,3-thiazolidin-4-one] registered a half-maximal inhibitory concentration (IC50) in data set [1] of 3 µM. The log k in [2] is 0.6940.

In data set [2], `COc1ccccc1/C=C1\SC(=S)NC1=O` [Compound 4a, (5Z)-5-(2-Methoxybenzylidene)-2-thioxo-1,3-thiazolidin-4-one] came in with a log k of 0.5867.

`O=C1NC(=S)S/C1=C\c1ccccc1F` [Compound 8a, (5Z)-5-(2-Fluorobenzylidene)-2-thioxo-1,3-thiazolidin-4-one] gave an IC50 in data set [1] of 99.5 µM. Moreover, in data set [2], the log k turned out to be 0.8108.

As to `O=C(O)CN1C(=O)CSC1=S` [rhodanine-N-acetic acid], the “inhibition of growth of Daucus carota” value in [5] is listed as “strongly inhibited”. For the same molecule, the “inhibition of germination of seeds of Sesamum indicum” value in the data set on seeds of Sesamum indicum is reported as “inhibited”. Also, the “inhibition of germination of seeds of Daucus carota” value in [7] is listed as “inhibited”.

As for `O=C1NC(=S)S/C1=C\c1ccc(O)cc1` [Compound 2c, (5Z)-5-(4-Hydroxybenzylidene)-2-thioxo-1,3-thiazolidin-4-one], in the data set on Chlorella vulgaris, the inhibition at 100 µM is 29.8%. This molecule came in with a log k in [2] of 0.2641.

For `O=C1NC(=S)S/C1=C\c1cccc([N+](=O)[O-])c1` [Compound 7b, (5Z)-5-(3-Nitrobenzylidene)-2-thioxo-1,3-thiazolidin-4-one], half-maximal inhibition in data set [1] (IC50) was put at 16.9 µM. Further, in the data set on Chlorella vulgaris, the inhibition at 100 µM is 85.7% and the IC50 amounted to 4.4 µM. Further, the log k in data set [2] is 0.2399.

`O=C1NC(=S)S/C1=C\c1cccc(Cl)c1` [Compound 9b, (5Z)-5-(3-Chlorobenzylidene)-2-thioxo-1,3-thiazolidin-4-one] yielded a half-inhibitory concentration (IC50) in [1] of 17 µM. The same molecule returned a log k in data set [2] of 1.0270.

Regarding `COc1cc(/C=C2\SC(=S)NC2=O)ccc1O` [Compound 5, (5Z)-5-(4-Hydroxy-3-methoxybenzylidene)-2-thioxo-1,3-thiazolidin-4-one], in the data set with Chlorella vulgaris, the inhibition at 100 µM came out at 19.4%. Further, the log k in data set [2] is reported as 0.3553.

In the case of `O=C1NC(=S)S/C1=C\c1ccccn1` [Compound 12, (5Z)-5-(Pyridin-2-ylmethylidene)-2-thioxo-1,3-thiazolidin-4-one], the log k in [2] came to 0.4864.

Molecule `O=C1NC(=S)S/C1=C\c1cccnc1` [Compound 13, (5Z)-5-(Pyridin-3-ylmethylidene)-2-thioxo-1,3-thiazolidin-4-one] gave a log k in data set [2] of 0.4539.

`O=C1NC(=S)S/C1=C\c1cnccn1` [Compound 15, (5Z)-5-(Pyrazin-2-ylmethylidene)-2-thioxo-1,3-thiazolidin-4-one]: in data set [1], the IC50 was determined as 216 µM. The inhibition at 100 µM in the data set with Chlorella vulgaris was 1.8%. Moreover, the log k in data set [2] is 0.2359.

In data set [1], `O=C1NC(=S)S/C1=C\c1ccc([N+](=O)[O-])cc1` [Compound 7c, (5Z)-5-(4-Nitrobenzylidene)-2-thioxo-1,3-thiazolidin-4-one] gave an IC50 of 20.1 µM. Besides, in the data set on Chlorella vulgaris, the inhibition at 100 µM stood at 87.1% and the IC50 is 21.9 µM. The same molecule yielded a log k in data set [2] of 0.2436.

`O=C1/C(=C/c2ccccc2[N+](=O)[O-])SC(=S)N1CCO` [Compound 11a, (5Z)-3-(2-Hydroxyethyl)-5-(2-nitrobenzylidene)-2-thioxo-1,3-thiazolidin-4-one]: the IC50 in [1] turned out to be 127 µM. This molecule displayed a log k in data set [2] of 0.4751.

As for `O=C1NC(=S)S/C1=C\c1ccc(O)cc1O` [Compound 3, (5Z)-5-(2,4-Hydroxybenzylidene)-2-thioxo-1,3-thiazolidin-4-one], in the data set with Chlorella vulgaris, the inhibition at 100 µM was 48.5% and the IC50 was 108 µM. In [2], the log k came out at 0.2776.
